# Article PMC10518255, “A first-in-class pan-lysyl oxidase inhibitor impairs stromal remodeling and enhances gemcitabine response and survival in pancreatic cancer” (Nature Cancer, 2023)
# Values joined by “and” are separate entries in the source; they are usually repeats but may differ in a detail not shown here. Equal values may be shown once.
# Experiments:
# [1] = system: lysyl oxidase family activity in conditioned medium from KPC CAFs; experiment: Amplex red enzymatic activity assay on cell-derived conditioned medium (Extended Data Fig. 3g); assay type: biochemical, mouse; design: Lysyl oxidase family activity in conditioned media: unit not given here; conditions: for Lysyl oxidase family activity in conditioned media: KPC CAF CM, replicates
# Protocol: (§1) Cell-derived conditioned medium was prepared from KPC CAFs and CCs grown in phenol red-free DMEM with 0.1% FBS and 10 μM CuSO4 for 24 h. At collection, size filtration >10 kDa for 40× concentration and buffer exchange (1.2 M urea and 50 mM sodium borate buffer, pH 8.2) were performed and subsequently used for the Amplex red assay as previously described[59] using putrescine as a substrate. Three biological repeats were performed.
# (§2) Data presented as mean values +/− SD. f. […] Data presented as mean values +/− SD. […] Data presented as mean values +/− SD. […] Data presented as mean values +/− SD. Ordinary one-way ANOVA for multiple comparison test performed. Source data
# [2] = system: lysyl oxidase family activity in conditioned medium from KPC cancer cells; experiment: as above; assay type: biochemical, mouse; design: Lysyl oxidase family activity in conditioned media: unit not given here; conditions: for Lysyl oxidase family activity in conditioned media: KPC cancer cells CM, replicates
# Protocol: as §1, §2
# [3] = system: standard panel of macromolecular targets; experiment: Eurofins SafetyScreen44 off-target panel (enzyme and radioligand-binding assays); conditions: 30 µM
# Source text: To increase specificity for the lysyl oxidase family, the design of PXS-5505 (Supplementary Data 1–3) was based upon substrate analog fluoroallylamines. Variants of fluoroallylamines have previously been used in amine oxidase inhibitors, including those targeting LOXL2 and LOXL3 (ref. [31]). […] Importantly, PXS-5505 not only maintains the potent functional inhibition of LOXL2 but linkage to a quinoline moiety improves potency for all other lysyl oxidase family members and is key to the superiority of PXS-5505 (Fig. 2a). PXS-5505 is the free base of the active principle, which is suitably isolated as a dihydrochloride salt.
# [4] = target: T1, Recombinant LOXL-4 (Homo sapiens, UniProt Q96JB6); experiment: Lysyl oxidase enzymatic activity, fluorescence-based assay, IC50; assay type: biochemical
# T1 sequence (Q96JB6 25-756): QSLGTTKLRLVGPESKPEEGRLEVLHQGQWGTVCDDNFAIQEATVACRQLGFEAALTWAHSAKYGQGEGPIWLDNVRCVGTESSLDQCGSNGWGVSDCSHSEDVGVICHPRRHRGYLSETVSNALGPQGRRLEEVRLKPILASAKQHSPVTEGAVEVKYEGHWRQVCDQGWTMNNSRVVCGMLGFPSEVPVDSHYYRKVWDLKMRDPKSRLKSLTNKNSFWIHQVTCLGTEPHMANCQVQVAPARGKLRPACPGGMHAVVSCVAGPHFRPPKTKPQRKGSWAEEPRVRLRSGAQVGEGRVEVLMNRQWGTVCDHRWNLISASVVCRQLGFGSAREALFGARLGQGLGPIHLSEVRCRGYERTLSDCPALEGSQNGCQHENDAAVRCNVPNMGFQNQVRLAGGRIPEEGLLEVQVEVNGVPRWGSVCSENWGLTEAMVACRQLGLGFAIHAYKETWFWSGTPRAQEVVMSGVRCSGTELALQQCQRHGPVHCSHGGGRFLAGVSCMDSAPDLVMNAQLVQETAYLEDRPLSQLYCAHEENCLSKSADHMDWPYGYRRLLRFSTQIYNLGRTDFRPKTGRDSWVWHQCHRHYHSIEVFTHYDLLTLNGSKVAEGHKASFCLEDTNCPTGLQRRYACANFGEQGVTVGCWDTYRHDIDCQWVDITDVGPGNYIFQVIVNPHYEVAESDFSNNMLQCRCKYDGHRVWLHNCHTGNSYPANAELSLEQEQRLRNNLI
# Source text: Data are presented as mean ± s.d. […] Data presented as mean ± s.d. […] Source data TEXT PRINTED IN THE PICTURE: (b) PXS-5505: Recombinant DAO IC50 (nM): >30,000; Recombinant SSAO/VAP1 IC50 (nM): >30,000; Recombinant MAO-A IC50 (nM): >30,000; Recombinant MAO-B IC50 (nM): >30,000 | (f) PXS-5505: Fibroblast LOX IC50 (nM): 4,930; Recombinant LOXL-1 IC50 (nM): 1,590; Recombinant LOXL-2 IC50 (nM): 570; Recombinant LOXL-3 IC50 (nM): 1,800; Recombinant LOXL-4 IC50 (nM): 190
# In characterizing PXS-5505, the half-maximum inhibitory concentration (IC50) values for each of the lysyl oxidase family members were determined by measuring enzymatic activity using a fluorescence-based assay.
# as §2
compound,measurement,setting,value
"Cl.Cl.NC/C=C(\F)CS(=O)(=O)c1cccc2cccnc12.O [PXS-5505, (Z)-3-fluoro-4-(quinolin-8-ylsulfonyl)but-2-en-1-amine dihydrochloride monohydrate]",Lysyl oxidase family activity in conditioned media,[1]; 1.5 nM PXS,95.9609 and 94.079 and 81.6749
same,Lysyl oxidase family activity in conditioned media,[1]; 3 nM PXS,109.447 and 108.981 and 81.5719
same,Lysyl oxidase family activity in conditioned media,[1]; 15 nM PXS,100.129 and 99.9799 and 74.1019
same,Lysyl oxidase family activity in conditioned media,[1]; 30 nM PXS,107.999 and 96.3316 and 79.5133
same,Lysyl oxidase family activity in conditioned media,[1]; 150 nM PXS,79.0426 and 71.3415 and 64.7518
same,Lysyl oxidase family activity in conditioned media,[1]; 300 nM PXS,88.3802 and 67.0866 and 51.1694
same,Lysyl oxidase family activity in conditioned media,[1]; 1.5 uM PXS,45.307 and 27.142 and 15.754
same,Lysyl oxidase family activity in conditioned media,[1]; 3 uM PXS,31.4691 and 22.608 and 3.789
same,Lysyl oxidase family activity in conditioned media,[1]; 15 uM PXS,-3.917 and 9.401 and -5.483
same,Lysyl oxidase family activity in conditioned media,[1]; 30 uM PXS,-4.091 and 9.102 and -4.018
same,inhibition of lysyl oxidase family activity in conditioned medium,[1]; KPC CAFs,inhibition of lysyl oxidase family activity
same,inhibition of lysyl oxidase family activity in conditioned medium,[2]; KPC CCs,inhibition of lysyl oxidase family activity
same,Lysyl oxidase family activity in conditioned media,[2]; 1.5 nM PXS,52.7404 and 147.39 and 87.9635
same,Lysyl oxidase family activity in conditioned media,[2]; 3 nM PXS,57.9047 and 143.925 and 88.9618
same,Lysyl oxidase family activity in conditioned media,[2]; 15 nM PXS,58.7665 and 150.554 and 90.679
same,Lysyl oxidase family activity in conditioned media,[2]; 30 nM PXS,57.8418 and 141.264 and 86.9464
same,Lysyl oxidase family activity in conditioned media,[2]; 150 nM PXS,55.9673 and 128.167 and 75.6773
same,Lysyl oxidase family activity in conditioned media,[2]; 300 nM PXS,56.4831 and 97.2065 and 57.86
same,Lysyl oxidase family activity in conditioned media,[2]; 1.5 uM PXS,35.0772 and 43.4748 and 18.796
same,Lysyl oxidase family activity in conditioned media,[2]; 3 uM PXS,22.4023 and 21.6286 and 3.933
same,Lysyl oxidase family activity in conditioned media,[2]; 15 uM PXS,-2.759 and 11.8534 and -9.095
same,Lysyl oxidase family activity in conditioned media,[2]; 30 uM PXS,-2.098 and 9.262 and -6.1538
same,off-target activity against a standard panel of macromolecular targets,[3],does not show any significant off-target activity
same,IC50,[4],190 nM
same,"LOXL4 activity, IC50 determination curve","[4]; log(Concentration) -4.52288, replicates, 30 µM",-2.4007 and -2.8906 and -3.2101 and -2.6712
same,"LOXL4 activity, IC50 determination curve","[4]; log(Concentration) -5, replicates, 10 µM",-1.4422 and -2.1664 and -2.1983 and -2.2521
same,"LOXL4 activity, IC50 determination curve","[4]; log(Concentration) -5.47712, replicates, 3.333 µM",0.2192 and -0.9736 and -1.1972 and -0.2715
same,"LOXL4 activity, IC50 determination curve","[4]; log(Concentration) -5.95424, replicates, 1.111 µM",5.544 and 5.363 and 4.947
same,"LOXL4 activity, IC50 determination curve","[4]; log(Concentration) -6.43136, replicates, 0.3704 µM",33.33 and 26.333 and 28.4205
same,"LOXL4 activity, IC50 determination curve","[4]; log(Concentration) -6.90849, replicates, 0.1235 µM",72.8948 and 68.0171 and 53.7035 and 49.075
same,"LOXL4 activity, IC50 determination curve","[4]; log(Concentration) -7.38561, replicates, 0.04115 µM",94.28 and 92.9061 and 89.562 and 72.7789
same,"LOXL4 activity, IC50 determination curve","[4]; log(Concentration) -7.86273, replicates, 0.01372 µM",99.5304 and 98.9021 and 84.3689
same,"LOXL4 activity, IC50 determination curve","[4]; log(Concentration) -8.33985, replicates, 0.004572 µM",103.556 and 102.033 and 92.1549
same,"LOXL4 activity, IC50 determination curve","[4]; log(Concentration) -8.81697, replicates, 0.001524 µM",95.8121
same,"LOXL4 activity, IC50 determination curve","[4]; log(Concentration) -9.29409, replicates, 0.000508 µM",96.0112
same,activity at 1.111 µM,"[4]; read-out: LOXL4 activity, IC50 determination curve, log(Concentration) -5.95424, replicates",6.34%
same,activity at 0.3704 µM,"[4]; read-out: LOXL4 activity, IC50 determination curve, log(Concentration) -6.43136, replicates",39.8%
same,activity at 0.01372 µM,"[4]; read-out: LOXL4 activity, IC50 determination curve, log(Concentration) -7.86273, replicates",101%
same,activity at 0.004572 µM,"[4]; read-out: LOXL4 activity, IC50 determination curve, log(Concentration) -8.33985, replicates",106%
same,activity at 0.001524 µM,"[4]; read-out: LOXL4 activity, IC50 determination curve, log(Concentration) -8.81697, replicates",104%
same,activity at 0.000508 µM,"[4]; read-out: LOXL4 activity, IC50 determination curve, log(Concentration) -9.29409, replicates",105%
